These results are taken from PubChem BioAssay (NCI).

The structures appear in SMILES notation. Values joined by “and” are separate entries in the source; they are usually repeats but may differ in a detail not shown here. Equal values may be shown once.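 Step 1: Grow cells in 96-well plates. Step 2: Expose to compound for 48 hours at 5 concentrations. Step 3: Interpolate endpoints linearly; if unreached, use highest concentration. GI50 is the concentration that inhibits growth by half. TGI: concentration producing complete growth inhibition.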

Assay in all cases: growth of human tumour cells (NCI), 48 h
In assay [1] the test system is A549 NSCLC.
Assay [2] relates to NCI-H460 lung.
The subject of assay [3] is HL-60(TB) leukemia.
For assay [4], the system named is MOLT-4 leukemia.
Assay [5] concerns HT29 colon.
Assay [6] deals with NCI/ADR-RES ovarian.
Assay [7] deals with NCI-H226 lung.
Assay [8] concerns NCI-H23 lung.
In assay [9] the test system is T-47D breast.
The subject of assay [10] is SNB-75 CNS.

For `N=C(N)C(N=Nc1ccccc1)C(=N)N` (stereo not given), the TGI in assay [1] is more than 100 µM; in [2] it was more than 100 µM; in assay [3] it was 54.2 µM; in [4] it was 99.3 µM; in assay [5] it was more than 100 µM; in assay [6], more than 100 µM. In addition, the TGI in assay [7] was 73.8 µM; in assay [8], more than 100 µM; in [9] it was more than 100 µM.

On to `O=C1c2ccccc2-c2ccc(O)cc21`, for which the TGI in assay [1] was 88 µM; in assay [10] it was more than 100 µM; in assay [2], 76.3 µM; in assay [3], 75.4 µM; in assay [4] it was 44.4 µM; in assay [5] it was more than 100 µM. In addition, the TGI in assay [6] was 84.5 µM; in [7], more than 100 µM; in assay [8], 38.5 µM; in assay [9], 44.8 µM.

Consider `COC1(OC)C[C@H](C)[C@@]23O[C@]24c2cc(O)c5c(c2N[C@H]3C#C/C=C\C#C[C@]14O)C(=O)c1ccccc1C5=O`, for which the GI50 in [1] is less than 1 nM; in [10], 2.8 nM; in assay [2] it was 5 nM; in [3], less than 1 nM; in assay [4], less than 1 nM; in assay [5], 22.6 nM. In addition, the GI50 in assay [6] was 2.23 nM; in assay [9], 10.4 nM. For the same compound, the TGI in assay [1] was 0.0489 µM and 0.0352 µM; in assay [10], 0.00927 µM and 0.0318 µM; in [3], 0.00105 µM; in assay [4], less than 0.001 µM; in assay [7] it was 0.00755 µM; in [8], 0.0229 µM. In assay [9], the TGI was 0.0774 µM and 0.455 µM.

Consider `CCC(C)C(NC(=O)C(CCCCN)NC(=O)C(NC(=O)C(CCC(N)=O)NC(=O)C(CCCNC(=N)N)NC(C)=O)C(C)CC)C(=O)NC(Cc1c[nH]c2ccccc12)C(=O)NC(Cc1ccccc1)C(=O)NC(CCC(N)=O)C(=O)NC(CC(N)=O)C(=O)NC(CCCNC(=N)N)C(=O)NC(CCCNC(=N)N)C(=O)NC(CCSC)C(=O)NC(CCCCN)C(=O)NC(Cc1c[nH]c2ccccc12)C(=O)NC(CCCCN)C(=O)NC(CCCCN)C(N)=O` (stereo not given), for which the TGI in [1], in assay [2], in assay [3], in assay [4], in assay [5] and in assay [6] was more than 50 µM each time. Also, the TGI in assay [8] and in [9] was more than 50 µM in each case.

Turning to `O=C1OC(c2ccccc2)=N/C1=C/c1cccs1`, the TGI was more than 100 µM in [1]; more than 100 µM in [10]; more than 100 µM in assay [2]; 44.5 µM in [3]; 41.9 µM in assay [4]; more than 100 µM in assay [5]. Further, the results for the TGI in assay [6] and in assay [7] were 83.7 µM and more than 100 µM, respectively.

Take `CC(=O)C1=C(O)C2(O)C(=O)c3c(c(C)c4ccc(C)c(O)c4c3O)CC2C(N)C1=O` (stereo not given): the TGI in assay [1] came out at 11.5 µM; in assay [10] it was 16.7 µM; in assay [2] it was 9.2 µM; in [3], 5.07 µM; in assay [4], 8.86 µM; in assay [5], 12.3 µM. In addition, the TGI turned out to be 13.7 µM in assay [6], 8.2 µM in assay [7], 7.14 µM in assay [8] and 30.5 µM in assay [9]. Besides, the values for the GI50 in assay [6] and in [9] were 1890 nM and 2330 nM, respectively.

Turning to `Cc1nc(Cl)c(C)c(Cl)n1`, the TGI in assay [1] is more than 100 µM; in [10], more than 100 µM; in assay [2] it was more than 100 µM; in assay [3], more than 68.4 µM; in assay [4], more than 100 µM; in [5], more than 100 µM. In addition, the TGI in assay [6], in assay [7], in assay [8] and in [9] was more than 100 µM in each case.

As for `S=C(NCCCCCCNC(=S)Nc1c2ccccc2nc2ccccc12)Nc1c2ccccc2nc2ccccc12`, the TGI in assay [1] is more than 100 µM; in assay [10] it was more than 100 µM; in assay [2], more than 100 µM; in assay [3], more than 100 µM; in assay [4] it was more than 94.3 µM; in assay [5], more than 100 µM. The TGI in [6] is more than 100 µM; in [7], more than 30.1 µM; in assay [8], more than 100 µM.

`O=C1c2scnc2-c2nccc3c2c1nc1ccccc13`: the TGI in assay [1] is 4.87 µM; in assay [10], 1.92 µM; in assay [2] it was 1.58 µM; in [4] it was more than 100 µM; in [5], more than 19.9 µM; in [6], more than 100 µM. Moreover, the TGI in assay [8] was found to be 1.2 µM; in [9], 1.7 µM.

For `N#CCc1[nH]nc2nc(SCc3ccccc3)nc(N3CCCCC3)c12`, the TGI in assay [1] is 34.5 µM; in [10], 33.7 µM; in assay [2], 37.9 µM; in assay [3], 43.6 µM; in assay [4], 37.9 µM; in assay [5], 41.4 µM. Besides, the TGI is 32.3 µM in assay [6], 33.1 µM in assay [8] and 39.1 µM in [9].

Take `C[N+]1(C)C2CCC1CC(OC(=O)C(CO)c1ccccc1)C2` (stereo not given): the TGI in assay [1], in assay [10], in [4], in assay [5], in assay [6] and in [7] was more than 100 µM each time. Also, the TGI in [8] and in [9] was more than 100 µM in each case.

Consider `OC1C=C2C3CN(Cc4cc5c(cc43)OCO5)[C@H]2C[C@@H]1O` (stereo not given in full), for which the TGI in [1] was more than 100 µM; in assay [10] it was 4.56 µM; in [2], 13.2 µM; in assay [3] it was 19.3 µM; in assay [4], more than 100 µM; in assay [5] it was 46.3 µM. Also, the TGI was 75.6 µM in [6], more than 100 µM in assay [7], 67.4 µM in assay [8] and 6.54 µM in [9].

`Cc1c2c(cc3c1[nH]c1ccccc13)C(c1ccc(F)cc1)=NCC2`: the TGI is 6.47 µM in assay [1]; 4.39 µM in assay [10]; 2.45 µM in assay [2]; 1.57 µM in assay [3]; 5.34 µM in assay [4]; 4.2 µM in assay [5]. For the same compound, the results for the TGI in assay [6], in assay [7] and in assay [8] were 2.36 µM, 4.64 µM and 7.56 µM, respectively.
